Each compound was assayed on rabbit aorta rings (assay: Vasorelaxant effect in vitro (phenylephrine-contracted rabbit aorta rings)). Settings: Oryctolagus cuniculus; concentration reducing height of phenylephrine-induced contraction of rabbit aorta rings by 50%; 0.1% DMSO.
Experimental: Rabbits are stunned by a blow to the back of the neck and are exsanguinated. The aorta is removed, freed of adherent tissue, divided into rings 1.5 mm wide and put singly under tension in 5 ml organ baths containing carbogen-gassed Krebs-Henseleit solution at 37° C. with the following composition (mM): NaCl: 119; KCl: 4.8; CaCl2×2 H2O: 1; MgSO4×7 H2O; 1.4; KH2PO4: 1.2; NaHCO3: 25; glucose: 10. The force of contraction is detected with Statham UC2 cells, amplified and digitized via A/D converters (DAS-1802 HC, Keithley Instruments Munich) and recorded in parallel on chart recorders. A contraction is generated by adding phenylephrine to the bath cumulatively in increasing concentration. After several control cycles, the substance to be investigated is investigated in each further run in increasing dosage in each case, and the height of the contraction is compared with the height of the contraction reached in the last preceding run. The concentration necessary to reduce the height of the control value by 50% (IC50) is calculated from this. The standard application volume is 5 μl, and the DMSO content in the bath solution corresponds to 0.1%.

Compound | IC50
Nc1nc(-c2nn(Cc3ccccc3F)c3ncccc23)ncc1OS(=O)(=O)C1CC1 [Example 4] | 710 nM
Nc1nc(-c2nn(Cc3ccccc3F)c3ncccc23)ncc1OS(=O)(=O)CCCC(F)(F)F [Example 7] | 440 nM
Nc1nc(-c2nn(Cc3ccccc3F)c3ncccc23)ncc1OS(=O)(=O)c1ccccc1 [Example 10] | 2020 nM

The next lines start with the values.

IC50 | Compound
700 nM | Nc1nc(-c2nn(Cc3ccccc3F)c3ncccc23)ncc1OS(=O)(=O)CCl [Example 1, 4-Amino-2-[1-(2-fluorobenzyl)-1H-pyrazolo[3,4-b]pyridin-3-yl]-5-pyrimidinyl chloromethanesulfonate]
580 nM | CS(=O)(=O)Oc1cnc(-c2nn(Cc3ccccc3F)c3ncccc23)nc1N [Example 2]
300 nM | CCS(=O)(=O)Oc1cnc(-c2nn(Cc3ccccc3F)c3ncccc23)nc1N [Example 3]
520 nM | CC(C)S(=O)(=O)Oc1cnc(-c2nn(Cc3ccccc3F)c3ncccc23)nc1N [Example 5]
